Where two headings read alike, the source gives them in different places.
How the values were obtained:
[1] = weight gain, diabetes risk, dyslipidemia risk; cited from earlier work
[2] = pH dependence; cited from earlier work
[3] = Pharmacokinetic study, intramuscular injection, four arm parallel; assay type: in vivo, male Sprague-Dawley Rats; settings: male, Sprague-Dawley, im, rat
Protocol: A long acting formulation is expected to suppress the maximum blood concentration (Cmax) and maintain therapeutic blood profiles for an extended period of time. […] To evaluate the in-vivo performance of our formulations, three suspensions of Lurasidone HCl were prepared with varying particle size and/or viscosity at 100 mg/mL with compositions given in Table 23, and with processes shown in FIGS. 11, 12 and 13 for Suspensions 1, 2, and 3, respectively. As a control, a solution of Lurasidone HCl was prepared at 2.5 mg/mL. […]
The blood samples were collected, placed into chilled tubes containing sodium heparin, inverted several times to mix, and kept on ice until centrifugation. […] Samples were analyzed with LC-MS/MS against an eight point standard curve with concentrations ranging from 0.05 ng/mL to 100 ng/mL. […]
Mass Spectrometer Conditions • Instrument: PE Sciex API4000 • Interface: Electrospray (“Turbo Ion Spray”) • Mode: Multiple reactions monitoring (MRM) • Gases: CUR 20, CAD 10, GS1 50, GS2 50 • Source Temperature: 500° C. • Voltages and Ions Monitored:
The formulations were well tolerated, and no adverse local or systemic reactions were observed following intramuscular administration of lurasidone to the animals. (Pharmacokinetic parameters were calculated with Phoenix WinNonlin version 6.4). […]

[4] = after oral administration of a 40 mg tablet; package insert; cited from earlier work

SMILES: CN1CCN(C2=Nc3cc(Cl)ccc3Nc3ccccc32)CC1 [clozapine]
- metabolic effects [1]: moderate to high

SMILES: O=C1[C@@H]2[C@H]3CC[C@H](C3)[C@@H]2C(=O)N1C[C@@H]1CCCC[C@H]1CN1CCN(c2nsc3ccccc23)CC1 [lurasidone]
- metabolic effects [1]: low
- solubility profile [2]: lower solubility at higher pH values
- half-life ([3]; 1.5 mg/kg, calculated based on terminal phase plasma concentrations above 2% of Cmax): 10 h
- half-life ([3]; plasma, 45 mg/kg): ≤ 505 h
- half-life [4]: 18 h

SMILES: Cc1cc2c(s1)Nc1ccccc1N=C2N1CCN(C)CC1 [olanzapine]
- metabolic effects [1]: moderate to high

SMILES: OCCOCCN1CCN(C2=Nc3ccccc3Sc3ccccc32)CC1 [quetiapine]
- metabolic effects [1]: moderate to high

From patent publication US20170196802A1, “Long Acting Injectable Formulations” (Abon Pharmaceuticals, LLC, priority 2016, published 2017)
